Where “and” joins values, the source holds several entries; their conditions need not be identical. Equal entries are not always repeated.
Legend:
endocannabinoid system = conditions: in vivo; cited from earlier work
[1] = Solubility study of API in liquid, semi-solid and binary excipients (visual, solvent aliquots, Parts 1 and 2); conditions: for Aliquot where API first fully dissolved, Part 2 Study: aliquots 1/2/3/4 = 0.8/0.4/0.25/0.1 % w/v
Description: The aim of this study was to assess the solubility of the N-(2-(tert-butyl)-1-((4,4-difluorocyclohexyl)methyl)-1H-benzimidazol-5-yl)ethanesulfonamide in a number of different excipients.
The binary semi-solid composition mixtures were manufactured as follows: • I. The semi solids were dispensed then molten overnight at ˜60° C. […] (PEG 6000) • II. PEG 400 was added the next day, as required, (when all the semi-solids were molten) • III. Binary solvent mixture containing PEG 6000 were mixed at ˜80° C. and the remaining binaries were mixed at ˜70° C., until homogenous
Where required, the semi solids were melted prior to use (overnight). The solubility of the API in the selected solvents was assessed in two parts (Part 1 and Part 2 Studies) as follows: • i. Solvent aliquots were added to pre-dispensed API while mixing using a magnetic flea and stirrer. • ii. The temperature of the solvents was maintained as follows: • a. Single-component liquids: Room temperature (ambient) • b. TPGS and PEG 1500: ˜60° C. • c. PEG 6000 and binary solvent mixtures containing PEG 6000: ˜80° C. • iii. Solvents were mixed for a maximum of 1 hour between each aliquot addition. • iv. The solvents were carefully inspected visually between aliquots. • v. The addition of solvent was stopped when: • a. After Aliquot 2 addition if API fully dissolve—(even if API dissolve after Aliquot 1, Aliquot 2 was added) • b. After adding all the solvent aliquots in Table 28 • vi.

SMILES: CCS(=O)(=O)Nc1ccc2c(c1)nc(C(C)(C)C)n2CC1CCC(F)(F)CC1 [Compound I, N-(2-(tert-butyl)-1-((4,4-difluorocyclohexyl)methyl)-1H-benzimidazol-5-yl)ethanesulfonamide]
- Appetite stimulation (endocannabinoid system): stimulate appetite in a dose-dependent manner
- CNS-psychoactive effects (endocannabinoid system): does not cause CNS-psychoactive effects
- Aliquot where API first fully dissolved, Part 1 Study ([1]; in 1,2-propane diol, ambient, DND = did not dissolve even after 3 aliquots (0.0125 % w/v)): DND*
- Aliquot where API first fully dissolved, Part 1 Study ([1]; in Corn oil, ambient, DND = did not dissolve even after 3 aliquots (0.0125 % w/v)): DND*
- Aliquot where API first fully dissolved, Part 2 Study ([1]; in Diethylene glycol monoethyl ether, ambient): 2nd
- Aliquot where API first fully dissolved, Part 1 Study ([1]; in Diethylene glycol monoethyl ether, ambient, aliquots 1/2/3 = 0.05/0.025/0.0125 % w/v): 1st
- Solubility range (% w/v) Above/Below ([1]; in Diethylene glycol monoethyl ether, ambient, listed as API): > 0.40% w/v and < 0.80% w/v
- Aliquot where API first fully dissolved, Part 1 Study ([1]; in Glycerol, ambient, DND = did not dissolve even after 3 aliquots (0.0125 % w/v)): DND*
- Aliquot where API first fully dissolved, Part 1 Study ([1]; in Kolliphor EL, ambient, DND = did not dissolve even after 3 aliquots (0.0125 % w/v)): DND*
- Aliquot where API first fully dissolved, Part 1 Study ([1]; in Kolliphor ELP, ambient, DND = did not dissolve even after 3 aliquots (0.0125 % w/v)): DND*
- Aliquot where API first fully dissolved, Part 1 Study ([1]; in Labrafil M 2125 CS, ambient, DND = did not dissolve even after 3 aliquots (0.0125 % w/v)): DND*
- Observation of Part 2 solution on standing ([1]; in Labrasol ALF, after 4 aliquots (0.1 % w/v), 5 days later at ambient): Precipitate
- Aliquot where API first fully dissolved, Part 2 Study ([1]; in Labrasol ALF, ambient): 3rd
- Solubility range (% w/v) Above/Below ([1]; in Labrasol ALF, ambient, listed as API): > 0.025% w/v and < 0.05% w/v
- Aliquot where API first fully dissolved, Part 1 Study ([1]; in Labrasol ALF, ambient, only after stirring overnight, aliquots 1/2/3 = 0.05/0.025/0.0125 % w/v): 2nd^#
- Aliquot where API first fully dissolved, Part 1 Study ([1]; in Miglyol 812 (Medium-chain Triglycerides), ambient, DND = did not dissolve even after 3 aliquots (0.0125 % w/v)): DND*
- Aliquot where API first fully dissolved, Part 2 Study ([1]; in Octanoic acid, ambient): 2nd
- Aliquot where API first fully dissolved, Part 1 Study ([1]; in Octanoic acid, ambient, aliquots 1/2/3 = 0.05/0.025/0.0125 % w/v): 2nd
- Solubility range (% w/v) Above/Below ([1]; in Octanoic acid, ambient, listed as API): > 0.40% w/v and < 0.80% w/v
- Aliquot where API first fully dissolved, Part 1 Study ([1]; in Oleic acid, ambient, DND = did not dissolve even after 3 aliquots (0.0125 % w/v)): DND*
- Aliquot where API first fully dissolved, Part 2 Study ([1]; in PEG 400, ambient): 4th
- Aliquot where API first fully dissolved, Part 1 Study ([1]; in PEG 400, ambient, aliquots 1/2/3 = 0.05/0.025/0.0125 % w/v): 2nd
- Aliquot where API first fully dissolved, Part 2 Study ([1]; in PEG400:PEG 1500 (1:1)): 1st
- Aliquot where API first fully dissolved, Part 1 Study ([1]; in PEG400:PEG 1500 (1:1), aliquots 1/2/3 = 0.05/0.025/0.0125 % w/v): 1st
- Solubility range (% w/v) Above/Below ([1]; in PEG400:PEG 1500 (1:1), upper limit not known): > 0.80% w/v
- Aliquot where API first fully dissolved, Part 2 Study ([1]; in PEG400:PEG 1500 (1:9)): 1st
- Aliquot where API first fully dissolved, Part 1 Study ([1]; in PEG400:PEG 1500 (1:9), aliquots 1/2/3 = 0.05/0.025/0.0125 % w/v): 1st
- Solubility range (% w/v) Above/Below ([1]; in PEG400:PEG 1500 (1:9), upper limit not known): > 0.80% w/v
- Aliquot where API first fully dissolved, Part 2 Study ([1]; in PEG400:PEG 1500 (9:1)): 1st
- Aliquot where API first fully dissolved, Part 1 Study ([1]; in PEG400:PEG 1500 (9:1), aliquots 1/2/3 = 0.05/0.025/0.0125 % w/v): 1st
- Solubility range (% w/v) Above/Below ([1]; in PEG400:PEG 1500 (9:1), upper limit not known): > 0.80% w/v
- Aliquot where API first fully dissolved, Part 2 Study ([1]; in PEG1500:PEG6000 (1:1), ~80° C.): 1st
- Aliquot where API first fully dissolved, Part 1 Study ([1]; in PEG1500:PEG6000 (1:1), ~80° C., aliquots 1/2/3 = 0.05/0.025/0.0125 % w/v): 1st
- Solubility range (% w/v) Above/Below ([1]; in PEG1500:PEG6000 (1:1), ~80° C., upper limit not known): > 0.80% w/v
- Aliquot where API first fully dissolved, Part 2 Study ([1]; in PEG1500:PEG6000 (1:9), ~80° C.): 1st
- Aliquot where API first fully dissolved, Part 1 Study ([1]; in PEG1500:PEG6000 (1:9), ~80° C., aliquots 1/2/3 = 0.05/0.025/0.0125 % w/v): 3rd
- Solubility range (% w/v) Above/Below ([1]; in PEG1500:PEG6000 (1:9), ~80° C., upper limit not known): > 0.80% w/v
- Aliquot where API first fully dissolved, Part 2 Study ([1]; in PEG1500:PEG6000 (9:1), ~80° C.): 1st
- Aliquot where API first fully dissolved, Part 1 Study ([1]; in PEG1500:PEG6000 (9:1), ~80° C., aliquots 1/2/3 = 0.05/0.025/0.0125 % w/v): 1st
- Solubility range (% w/v) Above/Below ([1]; in PEG1500:PEG6000 (9:1), ~80° C., upper limit not known): > 0.80% w/v
- Aliquot where API first fully dissolved, Part 2 Study ([1]; in PEG1500:TPGS (1:1)): 1st
- Aliquot where API first fully dissolved, Part 1 Study ([1]; in PEG1500:TPGS (1:1), aliquots 1/2/3 = 0.05/0.025/0.0125 % w/v): 1st
- Solubility range (% w/v) Above/Below ([1]; in PEG1500:TPGS (1:1), upper limit not known): > 0.80% w/v
- Aliquot where API first fully dissolved, Part 2 Study ([1]; in PEG1500:TPGS (1:9)): 2nd
- Aliquot where API first fully dissolved, Part 1 Study ([1]; in PEG1500:TPGS (1:9), aliquots 1/2/3 = 0.05/0.025/0.0125 % w/v): 3rd
- Solubility range (% w/v) Above/Below ([1]; in PEG1500:TPGS (1:9), listed as API): > 0.40% w/v and < 0.80% w/v
- Aliquot where API first fully dissolved, Part 2 Study ([1]; in PEG1500:TPGS (9:1)): 1st
- Aliquot where API first fully dissolved, Part 1 Study ([1]; in PEG1500:TPGS (9:1), aliquots 1/2/3 = 0.05/0.025/0.0125 % w/v): 1st
- Solubility range (% w/v) Above/Below ([1]; in PEG1500:TPGS (9:1), upper limit not known): > 0.80% w/v
- Aliquot where API first fully dissolved, Part 2 Study ([1]; in Polysorbate 20, ambient, only after Overnight Hold): 4th Only
- Aliquot where API first fully dissolved, Part 1 Study ([1]; in Polysorbate 20, ambient, only after stirring overnight, aliquots 1/2/3 = 0.05/0.025/0.0125 % w/v): 3rd^#
- Solubility range (% w/v) Above/Below ([1]; in Polysorbate 20, ambient, upper limit not known): > 0.10% w/v
- Aliquot where API first fully dissolved, Part 2 Study ([1]; in Polysorbate 80, ambient, only after Overnight Hold): 4th Only
- Aliquot where API first fully dissolved, Part 1 Study ([1]; in Polysorbate 80, ambient, only after stirring overnight, aliquots 1/2/3 = 0.05/0.025/0.0125 % w/v): 3rd^#
- Solubility range (% w/v) Above/Below ([1]; in Polysorbate 80, ambient, upper limit not known): > 0.10% w/v
- Aliquot where API first fully dissolved, Part 2 Study ([1]; in Propylene glycol dilaurate, ambient, only after Overnight Hold): 4th Only
- Aliquot where API first fully dissolved, Part 1 Study ([1]; in Propylene glycol dilaurate, ambient, only after stirring overnight, aliquots 1/2/3 = 0.05/0.025/0.0125 % w/v): 3rd^#
- Solubility range (% w/v) Above/Below ([1]; in Propylene glycol dilaurate, ambient, upper limit not known): > 0.10% w/v
- Aliquot where API first fully dissolved, Part 2 Study ([1]; in Propylene glycol monocaprylate, ambient): 2nd
- Aliquot where API first fully dissolved, Part 1 Study ([1]; in Propylene glycol monocaprylate, ambient, aliquots 1/2/3 = 0.05/0.025/0.0125 % w/v): 2nd
- Solubility range (% w/v) Above/Below ([1]; in Propylene glycol monocaprylate, ambient, listed as API): > 0.40% w/v and < 0.80% w/v
- Aliquot where API first fully dissolved, Part 1 Study ([1]; in Soybean oil, ambient, DND = did not dissolve even after 3 aliquots (0.0125 % w/v)): DND*
- Aliquot where API first fully dissolved, Part 2 Study ([1]; in molten Capmul 808G): 3rd
- Aliquot where API first fully dissolved, Part 1 Study ([1]; in molten Capmul 808G, aliquots 1/2/3 = 0.05/0.025/0.0125 % w/v): 1st
- Solubility range (% w/v) Above/Below ([1]; in molten Capmul 808G, listed as API): > 0.25% w/v and < 0.40% w/v
- Solubility range (% w/v) Above/Below ([1]; in molten Cremophor RH40, listed as API): > 0.40% w/v and < 0.80% w/v
- Aliquot where API first fully dissolved, Part 1 Study ([1]; in molten Cremophor RH40, only after Overnight Hold, aliquots 1/2/3 = 0.05/0.025/0.0125 % w/v): 2nd Only
- Aliquot where API first fully dissolved, Part 2 Study ([1]; in molten Cremophor RH40, only after stirring overnight): 2nd^#
- Aliquot where API first fully dissolved, Part 2 Study ([1]; in molten Gelucire 48/16): 4th
- Aliquot where API first fully dissolved, Part 1 Study ([1]; in molten Gelucire 48/16, aliquots 1/2/3 = 0.05/0.025/0.0125 % w/v): 1st
- Aliquot where API first fully dissolved, Part 2 Study ([1]; in molten Gelucire 50/13): 3rd
- Aliquot where API first fully dissolved, Part 1 Study ([1]; in molten Gelucire 50/13, aliquots 1/2/3 = 0.05/0.025/0.0125 % w/v): 2nd
- Solubility range (% w/v) Above/Below ([1]; in molten Gelucire 50/13, listed as API): > 0.25% w/v and < 0.40% w/v
- Aliquot where API first fully dissolved, Part 2 Study ([1]; in molten Glyceryl monooleate): 2nd
- Aliquot where API first fully dissolved, Part 1 Study ([1]; in molten Glyceryl monooleate, aliquots 1/2/3 = 0.05/0.025/0.0125 % w/v): 2nd
- Solubility range (% w/v) Above/Below ([1]; in molten Glyceryl monooleate, listed as API): > 0.40% w/v and < 0.80% w/v
- Aliquot where API first fully dissolved, Part 1 Study ([1]; in molten Glyceryl palmitostearate, DND = Did not dissolve (3 aliquots, 0.0125 % w/v)): DND*
- Aliquot where API first fully dissolved, Part 2 Study ([1]; in molten Kolliphor HS15): 2nd
- Aliquot where API first fully dissolved, Part 1 Study ([1]; in molten Kolliphor HS15, aliquots 1/2/3 = 0.05/0.025/0.0125 % w/v): 1st
- Solubility range (% w/v) Above/Below ([1]; in molten Kolliphor HS15, listed as API): > 0.40% w/v and < 0.80% w/v
- Aliquot where API first fully dissolved, Part 2 Study ([1]; in molten PEG 4000): 2nd
- Aliquot where API first fully dissolved, Part 1 Study ([1]; in molten PEG 4000, aliquots 1/2/3 = 0.05/0.025/0.0125 % w/v): 1st
- Solubility range (% w/v) Above/Below ([1]; in molten PEG 4000, listed as API): > 0.40% w/v and < 0.80% w/v
- Aliquot where API first fully dissolved, Part 2 Study ([1]; in molten PEG 6000, ~80° C.): 1st
- Aliquot where API first fully dissolved, Part 1 Study ([1]; in molten PEG 6000, ~80° C., aliquots 1/2/3 = 0.05/0.025/0.0125 % w/v): 2nd
- Solubility range (% w/v) Above/Below ([1]; in molten PEG 6000, ~80° C., upper limit not known): > 0.80% w/v
- Aliquot where API first fully dissolved, Part 1 Study ([1]; in molten Sorbitan palmitate, DND = Did not dissolve (3 aliquots, 0.0125 % w/v)): DND*
